Assay results as given in PubChem BioAssay (NCI).
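Growth conditions: 96-well plates. Treatment: test compound, 48 hours, 5 concentrations. Analysis: linear interpolation between bracketing concentrations; unreached endpoints set to highest concentration. GI50 = concentration required for 50% inhibition of growth. Definition used: TGI = concentration required for complete inhibition of growth.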

Tests used:
Assay in all cases: NCI tumour cell line growth inhibition, 48 h
BT-549 breast = tested on: BT-549 breast
DU-145 prostate = tested on: DU-145 prostate
HS 578T breast = tested on: HS 578T breast
MDA-MB-231 breast = tested on: MDA-MB-231 breast
NCI/ADR-RES ovarian = tested on: NCI/ADR-RES ovarian
DLD-1 colon = tested on: DLD-1 colon
DMS 114 small cell lung = tested on: DMS 114 small cell lung
KM20L2 colon = tested on: KM20L2 colon
LXFL 529 NSCLC = tested on: LXFL 529 NSCLC

Structure (SMILES) | GI50 (BT-549 breast) [µM] | TGI (BT-549 breast) [µM] | GI50 (DU-145 prostate) [µM] | TGI (DU-145 prostate) [µM] | GI50 (HS 578T breast) [µM] | TGI (HS 578T breast) [µM] | GI50 (MDA-MB-231 breast) [µM] | TGI (MDA-MB-231 breast) [µM] | GI50 (NCI/ADR-RES ovarian) [µM] | TGI (NCI/ADR-RES ovarian) [µM] | TGI (DLD-1 colon) [µM] | TGI (DMS 114 small cell lung) [µM] | TGI (KM20L2 colon) [µM] | TGI (LXFL 529 NSCLC) [µM]
CCCc1cc(=O)oc2c(C(=O)CC(C)C)c(O)c(CC=C(C)C)c(O)c12 | 7.85 | 42.4 | 14.4 | > 50 | 13.4 | > 50 | 9.81 | 24.7 | 8.6 | 48.1 | – | – | – | –
Cc1ccc(-n2c3c(c4c(CN5CCCCC5)c(O)ccc42)CCc2ccccc2C3=O)cc1 | > 100 | > 100 | > 100 | > 100 | > 100 | > 100 | 30.7 | > 100 | 71.2 | > 100 | – | – | – | –
CC(=O)OC1(C#N)CC2OC1C1C2N1C(=O)c1ccccc1 (stereo not drawn) | – | – | – | – | – | – | – | – | – | – | > 100 | > 100 | > 100 | > 100
CN(C)CC(C(=O)c1ccccc1)c1ccccc1 (stereo not drawn) | 1.87 | 4.39 | 1.34 | 3.15 | 2.19 | 12.8 | 2.5 | 10.1 | 2.59 | 8.37 | – | – | – | –
COc1cc2c(cc1OC)C(CCc1ccc(Cl)cc1)N(C)CC2 (stereo not drawn) | 33.5 | > 100 | 51.9 | > 100 | 18.3 | 51.4 | 16.3 | 39.1 | 17.7 | 39.4 | – | – | – | –
c1cncc(CNc2ccccc2-c2nnc(Nc3ccc4c(c3)OCO4)o2)c1 | 0.604 | > 100 | 0.197 | > 100 | 0.0974 | > 100 | 0.343 | > 100 | 0.0291 | 0.142 | – | – | – | –
Cc1ccc(/C=C(\C#N)n2nnc3cc(Cl)c(Cl)cc32)cc1 | 1.81 | 4.59 | 3.27 | > 100 | 2.83 | > 100 | 2.7 | 17.2 | 2.22 | 7.61 | – | – | – | –
COc1cc(CNC(=O)/C=C/C=C/c2ccc3c(c2)OCO3)ccc1OCc1cn(-c2ccc(Cl)c(Cl)c2)nn1 | 1.83 | 4.46 | 1.45 | 3.16 | 2.53 | 8.56 | 1.95 | 5 | 1.42 | 4.93 | – | – | – | –
Clc1ccc(-c2nc3c(-c4ccc(Cl)cc4)nc(-c4ccccc4)cn3c2-c2ccc(Cl)cc2)cc1 | 14.2 | > 50 | > 50 | > 50 | 10.8 | > 50 | 27.9 | > 50 | > 50 | > 50 | – | – | – | –
COC(=O)[C@]12CC[C@@H](C)[C@H](C)[C@@H]1C1=CC[C@@H]3[C@@]4(C)C[C@@H](OC(=O)c5ccco5)[C@H](O)[C@@](C)(CO)[C@@H]4[C@H](O)C[C@@]3(C)[C@]1(C)CC2 | 2.41 | 5.21 | 2.78 | 8.11 | 2.24 | 7.4 | 2.23 | 4.8 | 2.59 | 7.12 | – | – | – | –
CCOC(=O)CC(=O)ON(C)C(=O)Cc1ccccc1 | – | – | – | – | – | – | – | – | – | – | > 100 | > 100 | > 100 | > 100
C=CCC(C(=O)OC)C1(C(=O)OC)c2[nH]c3ccccc3c2CCN1Cc1ccccc1 (stereo not drawn) | – | – | – | – | – | – | – | – | – | – | > 100 | > 100 | > 100 | –
COC1=C(OC)C(=O)C(/C=C(\C)C(=O)O)=C(C)C1=O | > 100 | > 100 | > 100 | > 100 | > 100 | > 100 | > 100 | > 100 | > 100 | > 100 | – | – | – | –
C[N+](C)(C)CCOP(=O)(O)OP(=O)([O-])OCC1CCC(n2ccc(N)nc2=O)O1 (stereo not drawn) | – | > 100 | – | > 100 | – | > 100 | – | > 100 | – | > 100 | – | – | – | –
O=C1Cc2cc(CCn3ccnc3)c(Cl)cc2N1 | 9.51 | > 100 | 8.02 | > 100 | 0.873 | 9.92 | 5.18 | > 100 | 5.46 | > 100 | – | – | – | –
Nc1ccc2c(c1)C(=O)c1ccc(F)cc1-2 | – | > 100 | – | > 100 | – | > 100 | – | > 100 | – | > 100 | – | – | – | –
COc1ccc2c(c1)C(=O)c1c-2n(CCCN=[N+]=[N-])c(=O)c2ccccc12 | 89.9 | > 100 | 61.5 | > 100 | 62.4 | > 100 | > 100 | > 100 | 91.2 | > 100 | – | – | – | –
C=CCN1C(=O)/C(=c2\sc3n(c2=O)C2C(NN=3)N(CC)C(=O)N2CC)c2ccccc21 (stereo not drawn) | 1.65 | > 75.6 | 0.59 | > 37.3 | 0.447 | 58.5 | 1.23 | 7.96 | 0.434 | > 40.5 | – | – | – | –
CC1C2Cc3ccc(O)cc3C1(C)CCN2C (stereo not drawn) | – | – | – | > 100 | – | > 100 | – | > 100 | – | > 100 | – | – | – | –
Fc1ccc(-c2nc(-c3nc4ccc(Cl)cc4[nH]3)cc3c2[nH]c2ccccc23)cc1 | 4.62 | 18.7 | 3.41 | 12 | 3.38 | 57 | 2.88 | 13.6 | 3.42 | 28.3 | – | – | – | –
CCOc1ccc(Cc2nccc3cc(OCC)c(OCC)cc23)cc1OCC | 5.16 | 19.1 | 12.9 | 31.8 | 13.2 | 57.7 | 4.02 | 25.9 | 4.87 | 39.6 | – | – | – | –
O=C1NC(=NCC(CO)c2ccccc2)S/C1=C\c1ccc2ncccc2c1 (stereo not drawn) | 13.3 | > 25 | 18.4 | > 25 | 14.7 | > 25 | > 25 | > 25 | > 25 | > 25 | – | – | – | –
CCN1CCC[C@H]1c1cc(O)c2c(c1OC)C[C@H]1C[C@H]3[C@H](N)C(=O)C(C(N)=O)=C(O)[C@@]3(O)C(=O)C1=C2O | 0.0719 | 1.28 | 0.0664 | 2.16 | 0.0495 | 1.12 | 0.0431 | 0.717 | 0.435 | > 61.5 | – | – | – | –
CCc1cccc(C(C)CC)c1N=C(NC(=O)c1ccccc1C(=O)NC(=Nc1c(CC)cccc1C(C)CC)SC)SC (stereo not drawn) | – | – | – | – | – | – | – | – | – | – | > 100 | – | 79.6 | > 100
